Test results from patent US10087166B2, “Cyclic amine azaheterocyclic carboxamides” (Merck Patent GmbH, priority 2010, dated 2018).
pIC50: −log10 of the molar value.

Biological target: T1, P70S6K (Homo sapiens, UniProt P23443, T412E)
T1 construct: purchased Millipore
Experiment: P70S6K enzyme assay
Type: biochemical
Settings: P70S6K T412E mutant 3 nM, 24 μM ATP, FITC-AHA-AKRRRLSSLRA-OH substrate, 90 min at 25° C.; read-out: IC50p70S6K
Protocol: P70S6K inhibitor compounds are diluted and plated in 96 well plates. A reaction mixture including the following components is then added to the compound plate to initiate the enzyme reaction; P70S6K (3 nM, T412E mutant, Millipore) is mixed with 24 μM ATP in an assay buffer containing 100 mM Hepes (pH 7.5), 5 mM MgCl2, 1 mM DTT, 0.015% Brij and 1 μM of the substrate peptide FITC-AHA-AKRRRLSSLRA-OH (derived from the S6 ribosomal protein sequence, FITC=fluorescein isothiocyanate, AHA=6-aminohexanoic acid). The reaction is incubated for 90 min at 25° C., before the addition of 10 mM EDTA to stop the reaction. The proportion of substrate and product (phosphorylated) peptide is analyzed on a Caliper Life Sciences Lab Chip 3000, using a pressure of −1.4 psi, and upstream and downstream voltages of −3000 and −700 respectively. Product peaks are resolved before substrate peaks on the resulting chromatograms.
To assess the inhibitory potential of the compounds, IC50-values were determined, as shown in Chemical Synthesis section above.

T1 sequence (P23443 whole entry T412E): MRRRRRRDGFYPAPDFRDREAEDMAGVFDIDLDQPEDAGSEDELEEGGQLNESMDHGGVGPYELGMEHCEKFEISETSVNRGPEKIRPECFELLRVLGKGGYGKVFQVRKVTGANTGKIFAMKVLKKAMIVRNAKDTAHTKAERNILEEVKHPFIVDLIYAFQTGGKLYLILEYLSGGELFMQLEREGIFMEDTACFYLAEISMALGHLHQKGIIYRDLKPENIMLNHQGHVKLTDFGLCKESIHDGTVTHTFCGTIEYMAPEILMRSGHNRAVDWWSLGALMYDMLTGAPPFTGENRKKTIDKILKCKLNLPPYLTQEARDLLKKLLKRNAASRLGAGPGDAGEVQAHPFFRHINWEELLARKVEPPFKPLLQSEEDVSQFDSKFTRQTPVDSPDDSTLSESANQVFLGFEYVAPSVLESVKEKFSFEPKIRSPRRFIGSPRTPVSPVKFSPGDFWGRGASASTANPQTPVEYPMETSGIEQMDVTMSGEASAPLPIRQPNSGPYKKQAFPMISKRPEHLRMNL

| pIC50 | Structure (SMILES) |
| --- | --- |
| 8.44 | CCc1nc(N[C@@H]2CNCC[C@H]2c2ccc(F)cc2)c2cccc(C(N)=O)c2n1 (racemic) [compound 133] |
| 8.38 | Cc1nc(N[C@@H]2CNCC[C@H]2c2ccc(F)cc2)c2cccc(C(N)=O)c2n1 (racemic) [compound 134] |
| 8.37 | COc1cccc([C@@H]2CCNC[C@H]2Nc2ncnc3c(C(N)=O)cccc23)c1 (racemic) [compound 135] |
| 6.68 | Cc1nc(N[C@@H]2CNCC[C@H]2c2ccccc2F)c2cccc(C(N)=O)c2n1 (racemic) [compound 136] |
| 8.57 | Cc1nc(N[C@@H]2CNCC[C@H]2c2cccc(C(F)(F)F)c2)c2cccc(C(N)=O)c2n1 (racemic) [compound 138, 2-methyl-4-(((3R,4R)-4-(3-(trifluoromethyl)phenyl)piperidin-3-yl)amino)quinazoline-8-] |
| 7.74 | COc1ccc([C@@H]2CCNC[C@H]2Nc2ncnc3c(C(N)=O)cccc23)cc1OC (racemic) [compound 139] |
| 8.51 | NC(=O)c1cccc2c(N[C@@H]3CNCC[C@H]3c3cc(F)cc(C(F)(F)F)c3)ncnc12 (racemic) [compound 140] |
| 8.54 | Cc1nc(N[C@@H]2CNCC[C@H]2c2ccc(C(F)(F)F)cc2)c2cccc(C(N)=O)c2n1 (racemic) [compound 141] |
| 6.35 | CCc1nc(N[C@@H]2CNCC[C@H]2c2ccccc2F)c2cccc(C(N)=O)c2n1 (racemic) [compound 142] |
| 8.30 | CCc1nc(N[C@@H]2CNCC[C@H]2c2cccc(C)c2)c2cccc(C(N)=O)c2n1 (racemic) [compound 144] |
| 8.00 | Cc1cc(C)cc(C2CCNCC2Nc2ncnc3c(C(N)=O)cccc23)c1 (racemic) [compound 145, 4-((4-(3,5-dimethylphenyl)piperidin-3-yl)amino)quinazoline-8-carboxamide] |
| 8.15 | NC(=O)c1cc(F)cc2c(N[C@@H]3CNCC[C@H]3c3ccccc3)ncnc12 (racemic) [compound 146, 6-fluoro-4-(((3R,4R)-4-phenylpiperidin-3-yl)amino)quinazoline-8-carboxamide] |
| 7.66 | NC(=O)c1cccc2c(N[C@@H]3CNC[C@H]3C(=O)Nc3ccccc3)ncnc12 (relative stereo) [compound 26, trans-4-(4-Phenylcarbamoyl-pyrrolidin-3-ylamino)-quinazoline-8-carboxylic acid amide] |
| 8.46 | NC(=O)c1cccc2c(NC3CNCC3c3ccccc3F)ncnc12 (stereo not drawn) [compound 4, 4-((4-(2-fluorophenyl)pyrrolidin-3-yl)amino)quinazoline-8-carboxamide] |
| 8.59 | NC(=O)c1cccc2c(NC3CNCC3c3ccc(F)cc3)ncnc12 (stereo not drawn) [compound 5, 4-((4-(4-fluorophenyl)pyrrolidin-3-yl)amino)quinazoline-8-carboxamide] |
| 8.70 | COc1ccc(C2CNCC2Nc2ncnc3c(C(N)=O)cccc23)cc1 (stereo not drawn) [compound 6, 4-((4-(4-methoxyphenyl)pyrrolidin-3-yl)amino)quinazoline-8-carboxamide] |
| 8.59 | COc1cccc(C2CNCC2Nc2ncnc3c(C(N)=O)cccc23)c1 (stereo not drawn) [compound 7, 4-((4-(3-methoxyphenyl)pyrrolidin-3-yl)amino)quinazoline-8-carboxamide] |
| 7.74 | COc1ccccc1C1CNCC1Nc1ncnc2c(C(N)=O)cccc12 (stereo not drawn) [compound 8, 4-((4-(2-methoxyphenyl)pyrrolidin-3-yl)amino)quinazoline-8-carboxamide] |
| 8.62 | Cc1nc(NC2CNCC2c2ccc(F)cc2)c2cccc(C(N)=O)c2n1 (stereo not drawn) [compound 17, 4-((4-(4-fluorophenyl)pyrrolidin-3-yl)amino)-2-methylquinazoline-8-carboxamide] |
| 8.74 | COc1ccc(C2CNCC2Nc2nc(C)nc3c(C(N)=O)cccc23)cc1 (stereo not drawn) [compound 18, 4-((4-(4-methoxyphenyl)pyrrolidin-3-yl)amino)-2-methylquinazoline-8-carboxamide] |
| 7.89 | NC(=O)c1cccc2c(NC3CNCC3c3cccc(F)c3)ccnc12 (stereo not drawn) [compound 21, 4-((4-(3-fluorophenyl)pyrrolidin-3-yl)amino)quinoline-8-carboxamide] |
